From patent US20040063662A1, “Selenophene anti-tumor agents” (priority 1996, published 2004)

Experiments:
EKVX = assay: NCI human tumor cell panel: EKVX (Non-Small Cell Lung Cancer); type: cell-based; details: Non-Small Cell Lung Cancer; for GI50: read-out: Log10 GI50 (converted); for IC (TGI): read-out: Log10 TGI (converted)
DU-145 = assay: NCI human tumor cell panel: DU-145 (Prostate Cancer); type: cell-based; details: DU-145, Prostate Cancer; for GI50: read-out: Log10 GI50 (converted); for IC (TGI): read-out: Log10 TGI (converted)
SF-539 = assay: NCI human tumor cell panel: SF-539 (CNS Cancer); type: cell-based; details: SF-539, CNS Cancer; for GI50: read-out: Log10 GI50 (converted); for IC (TGI): read-out: Log10 TGI (converted)
OVCAR-4 = assay: NCI human tumor cell panel: OVCAR-4 (Ovarian Cancer); type: cell-based; details: OVCAR-4, Ovarian Cancer; for GI50: read-out: Log10 GI50 (converted); for IC (TGI): read-out: Log10 TGI (converted)
SR = assay: NCI human tumor cell panel: SR (Leukemia); type: cell-based; details: Leukemia; for GI50: read-out: Log10 GI50 (converted); for IC (TGI): read-out: Log10 TGI (converted)
ACHN = assay: NCI human tumor cell panel: ACHN (Renal Cancer); type: cell-based; details: Renal Cancer; for GI50: read-out: Log10 GI50 (converted); for IC (TGI): read-out: Log10 TGI (converted)
UACC-62 = assay: NCI human tumor cell panel: UACC-62 (Melanoma); type: cell-based; details: UACC-62, Melanoma; for GI50: read-out: Log10 GI50 (converted); for IC (TGI): read-out: Log10 TGI (converted)
KM12 = assay: NCI human tumor cell panel: KM12 (Colon Cancer); type: cell-based; details: KM12, Colon Cancer; for GI50: read-out: Log10 GI50 (converted); for IC (TGI): read-out: Log10 TGI (converted)
UO-31 = assay: NCI human tumor cell panel: UO-31 (Renal Cancer); type: cell-based; details: UO-31, Renal Cancer; for GI50: read-out: Log10 GI50 (converted); for IC (TGI): read-out: Log10 TGI (converted)
SF-295 = assay: NCI human tumor cell panel: SF-295 (CNS Cancer); type: cell-based; details: SF-295, CNS Cancer; for GI50: read-out: Log10 GI50 (converted); for IC (TGI): read-out: Log10 TGI (converted)
MDA-N = assay: NCI human tumor cell panel: MDA-N (Breast Cancer); type: cell-based; details: Breast Cancer; for GI50: read-out: Log10 GI50 (converted); for IC (TGI): read-out: Log10 TGI (converted)
M14 = assay: NCI human tumor cell panel: M14 (Melanoma); type: cell-based; details: M14, Melanoma; for GI50: read-out: Log10 GI50 (converted); for IC (TGI): read-out: Log10 TGI (converted)
MCF7 = assay: NCI human tumor cell panel: MCF7 (Breast Cancer); type: cell-based; details: MCF7, Breast Cancer; for GI50: read-out: Log10 GI50 (converted); for IC (TGI): read-out: Log10 TGI (converted)
MOLT-4 = assay: NCI human tumor cell panel: MOLT-4 (Leukemia); type: cell-based; details: MOLT-4, Leukemia; for GI50: read-out: Log10 GI50 (converted); for IC (TGI): read-out: Log10 TGI (converted)
NCI-H322M = assay: cells; type: cell-based; details: Homo sapiens, Non-Small Cell Lung Cancer; for GI50: read-out: Log10 GI50 (converted); for IC (TGI): read-out: Log10 TGI (converted)
MDA-MB-435 = assay: NCI human tumor cell panel: MDA-MB-435 (Breast Cancer); type: cell-based; details: MDA-MB-435, Breast Cancer; for GI50: read-out: Log10 GI50 (converted); for IC (TGI): read-out: Log10 TGI (converted)
HOP-62 = assay: NCI human tumor cell panel: HOP-62 (Non-Small Cell Lung Cancer); type: cell-based; details: HOP-62, Non-Small Cell Lung Cancer; for GI50: read-out: Log10 GI50 (converted); for IC (TGI): read-out: Log10 TGI (converted)
OVCAR-8 = assay: NCI human tumor cell panel: OVCAR-8 (Ovarian Cancer); type: cell-based; details: OVCAR-8, Ovarian Cancer; for GI50: read-out: Log10 GI50 (converted); for IC (TGI): read-out: Log10 TGI (converted)
OVCAR-3 = assay: NCI human tumor cell panel: OVCAR-3 (Ovarian Cancer); type: cell-based; details: OVCAR-3, Ovarian Cancer; for GI50: read-out: Log10 GI50 (converted); for IC (TGI): read-out: Log10 TGI (converted)
HCC-2998 = assay: NCI human tumor cell panel: HCC-2998 (Colon Cancer); type: cell-based; details: HCC-2998, Colon Cancer; for GI50: read-out: Log10 GI50 (converted); for IC (TGI): read-out: Log10 TGI (converted)
RPMI-8226 = assay: NCI human tumor cell panel: RPMI-8226 (Leukemia); type: cell-based; details: RPMI-8226, Leukemia; for GI50: read-out: Log10 GI50 (converted); for IC (TGI): read-out: Log10 TGI
LOX IMVI = assay: NCI human tumor cell panel: LOX IMVI (Melanoma); type: cell-based; details: Melanoma; for GI50: read-out: Log10 GI50 (converted); for IC (TGI): read-out: Log10 TGI (converted)
SNB-75 = assay: NCI human tumor cell panel: SNB-75 (CNS Cancer); type: cell-based; details: SNB-75, CNS Cancer; for GI50: read-out: Log10 GI50 (converted); for IC (TGI): read-out: Log10 TGI (converted)
MALME-3M = assay: NCI human tumor cell panel: MALME-3M (Melanoma); type: cell-based; details: MALME-3M, Melanoma; for GI50: read-out: Log10 GI50 (converted); for IC (TGI): read-out: Log10 TGI (converted)
SW-620 = assay: NCI human tumor cell panel: SW-620 (Colon Cancer); type: cell-based; details: SW-620, Colon Cancer; for GI50: read-out: Log10 GI50 (converted); for IC (TGI): read-out: Log10 TGI (converted)
HT29 = assay: NCI human tumor cell panel: HT29 (Colon Cancer); type: cell-based; details: HT-29, HT29, Colon Cancer; for GI50: read-out: Log10 GI50 (converted); for IC (TGI): read-out: Log10 TGI (converted)
HCT-15 = assay: NCI human tumor cell panel: HCT-15 (Colon Cancer); type: cell-based; details: HCT-15, Colon Cancer; for GI50: read-out: Log10 GI50 (converted)
U251 = assay: NCI human tumor cell panel: U251 (CNS Cancer); type: cell-based; details: U-251, U251, CNS Cancer; for GI50: read-out: Log10 GI50 (converted); for IC (TGI): read-out: Log10 TGI (converted)
HOP-92 = assay: NCI human tumor cell panel: HOP-92 (Non-Small Cell Lung Cancer); details: for GI50: HOP-92, read-out: Log10 GI50 (converted); for IC (TGI): HOP-92, read-out: Log10 TGI
UACC-257 = assay: NCI human tumor cell panel: UACC-257 (Melanoma); type: cell-based; details: UACC-257, Melanoma; for GI50: read-out: Log10 GI50 (converted); for IC (TGI): read-out: Log10 TGI (converted)
NCI-H460 = assay: NCI human tumor cell panel: NCI-H460 (Non-Small Cell Lung Cancer); type: cell-based; details: NCI-H460, Non-Small Cell Lung Cancer; for GI50: read-out: Log10 GI50 (converted); for IC (TGI): read-out: Log10 TGI (converted)
HCT-116 = assay: NCI human tumor cell panel: HCT-116 (Colon Cancer); type: cell-based; details: HCT-116, Colon Cancer; for GI50: read-out: Log10 GI50 (converted); for IC (TGI): read-out: Log10 TGI (converted)

## O=Cc1ccc(-c2ccc(-c3ccc(C=O)[se]3)[se]2)[se]1 [NSC 675245]
EKVX
  GI50: > 100 µM
  IC (TGI): > 100 µM
DU-145
  GI50: > 100 µM
  IC (TGI): > 100 µM
SF-539
  GI50: > 100 µM
  IC (TGI): > 100 µM
OVCAR-4
  GI50: 2.63 µM
  IC (TGI): > 100 µM
SR
  GI50: > 100 µM
  IC (TGI): > 100 µM
ACHN
  GI50: 57.5 µM
  IC (TGI): > 100 µM
UACC-62
  GI50: 0.0646 µM
  IC (TGI): > 100 µM
KM12
  GI50: > 100 µM
  IC (TGI): > 100 µM
UO-31
  GI50: > 100 µM
  IC (TGI): > 100 µM
SF-295
  GI50: 49 µM
  IC (TGI): > 100 µM
MDA-N
  GI50: > 100 µM
  IC (TGI): > 100 µM
M14
  GI50: > 100 µM
  IC (TGI): > 100 µM
MCF7
  GI50: 1.48 µM
  IC (TGI): > 100 µM
MOLT-4
  GI50: > 100 µM
  IC (TGI): > 100 µM
NCI-H322M
  GI50: > 100 µM
  IC (TGI): > 100 µM
MDA-MB-435
  GI50: > 100 µM
  IC (TGI): > 100 µM
HOP-62
  GI50: 51.3 µM
  IC (TGI): > 100 µM
OVCAR-8
  GI50: > 100 µM
  IC (TGI): > 100 µM
OVCAR-3
  GI50: 0.389 µM
  IC (TGI): > 100 µM
HCC-2998
  GI50: 4.79 µM
  IC (TGI): > 100 µM
RPMI-8226
  GI50: > 100 µM
  IC (TGI): > 100 µM
LOX IMVI
  GI50: > 100 µM
  IC (TGI): > 100 µM
SNB-75
  GI50: 10 µM
  IC (TGI): > 100 µM
MALME-3M
  GI50: > 100 µM
  IC (TGI): > 100 µM
SW-620
  GI50: 4.17 µM
  IC (TGI): > 100 µM
HT29
  GI50: > 100 µM
  IC (TGI): > 100 µM
HCT-15
  GI50: > 100 µM
HCT-15; read-out: Log10 TGI (converted)
  IC (TGI): > 100 µM
U251
  GI50: 1.05 µM
  IC (TGI): > 100 µM
HOP-92
  GI50: > 100 µM
  IC (TGI): > 100 µM
UACC-257
  GI50: 0.324 µM
  IC (TGI): 0.912 µM
NCI-H460
  GI50: 1.78 µM
  IC (TGI): > 100 µM
HCT-116
  GI50: 0.692 µM
  IC (TGI): > 100 µM

## OCc1ccc(-c2ccc(-c3cccs3)[se]2)s1 [NSC 675344]
EKVX
  GI50: > 100 µM
  IC (TGI): > 100 µM
DU-145
  GI50: 36.3 µM
  IC (TGI): > 100 µM
SF-539
  GI50: > 100 µM
  IC (TGI): > 100 µM
OVCAR-4
  GI50: 0.0417 µM
  IC (TGI): > 100 µM
SR
  GI50: > 100 µM
  IC (TGI): > 100 µM
ACHN
  GI50: 12.9 µM
  IC (TGI): 83.2 µM
UACC-62
  GI50: < 0.01 µM
  IC (TGI): 0.0141 µM
KM12
  GI50: > 100 µM
  IC (TGI): > 100 µM
UO-31
  GI50: > 100 µM
  IC (TGI): > 100 µM
SF-295
  GI50: 26.9 µM
  IC (TGI): > 100 µM
MDA-N
  GI50: > 100 µM
  IC (TGI): > 100 µM
M14
  GI50: > 100 µM
  IC (TGI): > 100 µM
MCF7
  GI50: 0.126 µM
  IC (TGI): > 100 µM
MOLT-4
  GI50: > 100 µM
  IC (TGI): > 100 µM
NCI-H322M
  GI50: 20.9 µM
  IC (TGI): > 100 µM
MDA-MB-435
  GI50: > 100 µM
  IC (TGI): > 100 µM
HOP-62
  GI50: 34.7 µM
  IC (TGI): > 100 µM
OVCAR-8
  GI50: > 100 µM
  IC (TGI): > 100 µM
OVCAR-3
  GI50: < 0.01 µM
  IC (TGI): > 100 µM
HCC-2998
  GI50: 0.257 µM
  IC (TGI): 1.62 µM
RPMI-8226
  GI50: > 100 µM
  IC (TGI): > 100 µM
LOX IMVI
  GI50: 34.7 µM
  IC (TGI): > 100 µM
SNB-75
  GI50: 16.6 µM
  IC (TGI): 49 µM
MALME-3M
  GI50: > 100 µM
  IC (TGI): > 100 µM
SW-620
  GI50: > 100 µM
  IC (TGI): > 100 µM
HT29
  GI50: > 100 µM
  IC (TGI): > 100 µM
HCT-15
  GI50: 0.0257 µM
U251
  GI50: 0.0251 µM
  IC (TGI): 26.3 µM
HOP-92
  GI50: 27.5 µM
  IC (TGI): 89.1 µM
UACC-257
  GI50: < 0.01 µM
  IC (TGI): 0.0186 µM
NCI-H460
  GI50: < 0.01 µM
  IC (TGI): > 100 µM
HCT-116
  GI50: < 0.01 µM
  IC (TGI): 0.0417 µM
